PubChem BioAssay AID1963854 (Molecular Pharmacology Branch, DTP, NCI, 2024)

Test system: 186277-243-T-J2-PDC complex spheroid viability
Assay: Anticancer human tumor 186277-243-T-J2-PDC patient-derived colon adenocarcinoma cell line growth inhibition [POLQ]
Conditions: for IC50: curve of first compound; for viability, T/C: stronger effect = lower value; active = viability on the fitted dose curve at most 10% of control; inactive = the rest
How it was run: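 Growth inhibition in 3D: complex spheroids (tumor PDC, HUVEC, MSC) treated with POLQ inhibitor combinations; where Cmax unknown, highest tested concentration 10 microM, except SN-38 at 1 microM.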

[1] = second compound 0.0316 µM, first compound 0.0316 µM
[2] = second compound 0.0316 µM, first compound 0.1 µM
[3] = second compound 0.0316 µM, first compound 0.316 µM
[4] = second compound 0.0316 µM, first compound 1 µM
[5] = second compound 0.0316 µM, first compound 3.16 µM
[6] = second compound 0.0316 µM, first compound 10 µM
[7] = second compound 0.1 µM, first compound 0.0316 µM
[8] = second compound 0.1 µM, first compound 0.1 µM
[9] = second compound 0.1 µM, first compound 0.316 µM
[10] = second compound 0.1 µM, first compound 1 µM
[11] = second compound 0.1 µM, first compound 3.16 µM
[12] = second compound 0.1 µM, first compound 10 µM
[13] = second compound 0.316 µM, first compound 0.0316 µM
[14] = second compound 0.316 µM, first compound 0.1 µM
[15] = second compound 0.316 µM, first compound 0.316 µM
[16] = second compound 0.316 µM, first compound 1 µM
[17] = second compound 0.316 µM, first compound 3.16 µM
[18] = second compound 0.316 µM, first compound 10 µM
[19] = second compound 1 µM, first compound 0.0316 µM
[20] = second compound 1 µM, first compound 0.1 µM
[21] = second compound 1 µM, first compound 0.316 µM
[22] = second compound 1 µM, first compound 1 µM
[23] = second compound 1 µM, first compound 3.16 µM
[24] = second compound 1 µM, first compound 10 µM
[25] = second compound 3.16 µM, first compound 0.0316 µM
[26] = second compound 3.16 µM, first compound 0.1 µM
[27] = second compound 3.16 µM, first compound 0.316 µM
[28] = second compound 3.16 µM, first compound 1 µM
[29] = second compound 3.16 µM, first compound 3.16 µM
[30] = second compound 3.16 µM, first compound 10 µM
[31] = second compound 10 µM, first compound 0.0316 µM
[32] = second compound 10 µM, first compound 0.1 µM
[33] = second compound 10 µM, first compound 0.316 µM
[34] = second compound 10 µM, first compound 1 µM
[35] = second compound 10 µM, first compound 3.16 µM
[36] = second compound 10 µM, first compound 10 µM
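Also: spheroids exposed to compounds for seven days.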
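For viability, T/C in this document: 100% = DMSO vehicle control viability.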

CCc1cc2c(N3CCc4c(cc(Cn5ccnc5)cc4-c4cn(C)nc4C(F)(F)F)C3=O)cc(C)nc2c(OC)n1 + Cc1cccc(N(C)C(=O)C2C(O)CCN2c2nc(C)cc(C(F)(F)F)c2C#N)c1
> 10 µM: IC50 (second compound 0.0316 µM) | IC50 (second compound 0.1 µM) | IC50 (second compound 0.316 µM) | IC50 (second compound 1 µM) | IC50 (second compound 3.16 µM) | IC50 (second compound 10 µM)
inactive: viability, T/C [1] 111% | viability, T/C [2] 86.9% | viability, T/C [3] 98.8% | viability, T/C [4] 97.1% | viability, T/C [5] 93.9% | viability, T/C [6] 95.2% | viability, T/C [7] 90.8% | viability, T/C [8] 91.3% | viability, T/C [9] 96.8% | viability, T/C [10] 99.4% | viability, T/C [11] 112% | viability, T/C [12] 83.2% | viability, T/C [13] 97% | viability, T/C [14] 101% | viability, T/C [15] 101% | viability, T/C [16] 114% | viability, T/C [17] 116% | viability, T/C [18] 92.5% | viability, T/C [19] 99.4% | viability, T/C [20] 96.9% | viability, T/C [21] 107% | viability, T/C [22] 111% | viability, T/C [23] 115% | viability, T/C [24] 83.4% | viability, T/C [25] 108% | viability, T/C [26] 104% | viability, T/C [27] 88.6% | viability, T/C [28] 113% | viability, T/C [29] 94.1% | viability, T/C [30] 92.9% | viability, T/C [31] 101% | viability, T/C [32] 110% | viability, T/C [33] 107% | viability, T/C [34] 103% | viability, T/C [35] 104% | viability, T/C [36] 97.9%

Cn1ncnc1[C@H]1c2n[nH]c(=O)c3cc(F)cc(c23)N[C@@H]1c1ccc(F)cc1 + COC1C(OC(N)=O)C(O)C(Oc2ccc3c(O)c(NC(=O)c4ccc(O)c(CC=C(C)C)c4)c(=O)oc3c2C)OC1(C)C
inactive: viability, T/C (second compound 0.0316 µM, first compound 0.000316 µM) 96.7% | viability, T/C (second compound 0.0316 µM, first compound 0.001 µM) 93% | viability, T/C (second compound 0.0316 µM, first compound 0.00316 µM) 114% | viability, T/C (second compound 0.0316 µM, first compound 0.01 µM) 112% | viability, T/C [1] 119% | viability, T/C [2] 105% | viability, T/C (second compound 0.1 µM, first compound 0.000316 µM) 103% | viability, T/C (second compound 0.1 µM, first compound 0.001 µM) 110% | viability, T/C (second compound 0.1 µM, first compound 0.00316 µM) 103% | viability, T/C (second compound 0.1 µM, first compound 0.01 µM) 106% | viability, T/C [7] 116% | viability, T/C [8] 108% | viability, T/C (second compound 0.316 µM, first compound 0.000316 µM) 101% | viability, T/C (second compound 0.316 µM, first compound 0.001 µM) 111% | viability, T/C (second compound 0.316 µM, first compound 0.00316 µM) 111% | viability, T/C (second compound 0.316 µM, first compound 0.01 µM) 105% | viability, T/C [13] 114% | viability, T/C [14] 108% | viability, T/C (second compound 1 µM, first compound 0.000316 µM) 84.4% | viability, T/C (second compound 1 µM, first compound 0.001 µM) 110% | viability, T/C (second compound 1 µM, first compound 0.00316 µM) 108% | viability, T/C (second compound 1 µM, first compound 0.01 µM) 98.3% | viability, T/C [19] 118% | viability, T/C [20] 102% | viability, T/C (second compound 3.16 µM, first compound 0.000316 µM) 92.4% | viability, T/C (second compound 3.16 µM, first compound 0.001 µM) 106% | viability, T/C (second compound 3.16 µM, first compound 0.00316 µM) 107% | viability, T/C (second compound 3.16 µM, first compound 0.01 µM) 117% | viability, T/C [25] 128% | viability, T/C [26] 100% | viability, T/C (second compound 10 µM, first compound 0.000316 µM) 96.2% | viability, T/C (second compound 10 µM, first compound 0.001 µM) 106% | viability, T/C (second compound 10 µM, first compound 0.00316 µM) 110% | viability, T/C (second compound 10 µM, first compound 0.01 µM) 101% | viability, T/C [31] 109% | viability, T/C [32] 104%
> 0.1 µM: IC50 (second compound 0.0316 µM) | IC50 (second compound 0.1 µM) | IC50 (second compound 0.316 µM) | IC50 (second compound 1 µM) | IC50 (second compound 3.16 µM) | IC50 (second compound 10 µM)

COc1cc(C2c3cc4c(cc3C(OC3OC5COC(C)OC5C(O)C3O)C3COC(=O)C23)OCO4)cc(OC)c1O (stereo unspecified) + COC1C(OC(N)=O)C(O)C(Oc2ccc3c(O)c(NC(=O)c4ccc(O)c(CC=C(C)C)c4)c(=O)oc3c2C)OC1(C)C
0.71 µM: IC50 (second compound 10 µM)
inactive: viability, T/C [1] 112% | viability, T/C [2] 128% | viability, T/C [3] 76.6% | viability, T/C [4] 40.9% | viability, T/C [5] 25.7% | viability, T/C [6] 11.6% | viability, T/C [7] 98.8% | viability, T/C [8] 113% | viability, T/C [9] 69.9% | viability, T/C [10] 42.1% | viability, T/C [11] 27.3% | viability, T/C [12] 11.9% | viability, T/C [13] 114% | viability, T/C [14] 116% | viability, T/C [15] 67.9% | viability, T/C [16] 39.7% | viability, T/C [17] 24.6% | viability, T/C [18] 11.8% | viability, T/C [19] 118% | viability, T/C [20] 120% | viability, T/C [21] 65.3% | viability, T/C [22] 42.3% | viability, T/C [23] 25.5% | viability, T/C [24] 12.4% | viability, T/C [25] 113% | viability, T/C [26] 124% | viability, T/C [27] 65.1% | viability, T/C [28] 37.6% | viability, T/C [29] 25.3% | viability, T/C [30] 11.3% | viability, T/C [31] 120% | viability, T/C [32] 110% | viability, T/C [33] 69.6% | viability, T/C [34] 40.3% | viability, T/C [35] 26.8% | viability, T/C [36] 11.8%
0.659 µM: IC50 (second compound 0.316 µM)
0.56 µM: IC50 (second compound 3.16 µM)
0.727 µM: IC50 (second compound 0.0316 µM)
0.739 µM: IC50 (second compound 0.1 µM)
0.662 µM: IC50 (second compound 1 µM)
